Experimental data reported in publication PMC3285657, “Biophysical Characterization and Membrane Interaction of the Two Fusion Loops of Glycoprotein B from Herpes Simplex Type I Virus” (PLoS ONE, 2012).
Residues, ends and D or L forms follow the SMILES beside them.

B1: HB168–186 (peptide)
peptide: VTVSQVWFGHRYSQFMGIF
notes: source: synthetic peptide (solid-phase Fmoc method), purified (purity higher than 98%)

Experiments:
[1] = Lipid mixing assay (NBD-PE/Rho-PE resonance energy transfer); settings: 0.1 mM lipid, 37°C
Method: To investigate the fusogenicity of gB peptides, NBD and Rho labelled PE were used as the donor and acceptor of fluorescence energy transfer. A population of LUVs labelled with both was mixed with a population of unlabelled LUVs and increasing amounts of peptides were added. […] The dependence of the extent of lipid mixing on the peptide to lipid molar ratio was analysed. The fusogenic capacity was monitored by measuring their ability to induce lipid mixing of model membranes composed of DOPG, DOPG/Chol (3/2), DOPC, DOPC/Chol (3/2), POPC/Chol (3/2), and POPC/Chol/SM at various ratios (4/1/1, 2/1/1, 1/1/1).
Figure 2 Ability of peptides to induce lipid mixing. Peptide-promoted membrane fusion as determined by lipid mixing; peptide aliquots were added to 0.1 mM LUVs, containing 0.6% NBD and 0.6% Rho. The increase in fluorescence was measured after the addition of peptide aliquots; reduced Triton-X-100 (0.05% v/v) was referred to as 100% of fusion. In figure is reported the dose dependence of lipid mixing at 37°C: panels A and B HB168–186 and HB254–270 in LUVs of different composition; panels C and D HB168–186 and HB254–270 in LUVs mimicking lipid rafts; panel E HB168–186, HB254–270 and shorter versions in DOPC/Chol LUVs; panel F equimolecular mixtures of peptides HB168–186 and HB254–270 in DOPC/Chol (3/2) and POPC/Chol/SM (2/1/1).
Membrane lipid mixing was monitored using the resonance energy transfer assay (RET) reported by Struck et al.. The assay is based on the dilution of the NBD-PE (donor) and Rho-PE (acceptor). Dilution due to membrane mixing results in an increase in NBD-PE fluorescence. The change in donor emission was monitored as aliquots of peptides were added to vesicles. […] The fluorescence scale was calibrated such that the zero level corresponded to the initial residual fluorescence of the labelled vesicles and the 100% value corresponding to complete mixing of all lipids in the system was set by the fluorescence intensity of vesicles upon the addition of Triton X-100 (0.05% v/v) at the same total lipid concentrations of the fusion assay. […]

[2] = Quenching of tryptophan/tyrosines by acrylamide (Stern-Volmer); assay type: physicochemical; settings: peptide 1 µM; for Ksv (M^−1) in buffer: absence of liposomes, F0/F = 1+Ksv [Q]; for Ksv (M^−1) in LUVs: presence of liposomes, peptide/lipid molar ratio 1/200
From the text: The observed changes in the characteristics of the tryptophan/tyrosine emission upon binding of peptides HB168–186 and HB254–270 to lipid vesicles indicate their insertion into the hydrophobic region of the bilayers. We also studied the accessibility of the tryptophan/tyrosine residues of membrane-bound peptides towards acrylamide, a neutral, water-soluble, highly efficient quenching molecule, which is unable to penetrate into the hydrophobic core of the lipid bilayer. The more deeply a tryptophan/tyrosine residue is buried, the less strongly it can be quenched by acrylamide. Stern-Volmer plots for the quenching of tryptophan by acrylamide, recorded in the absence and presence of lipid vesicles, are depicted in Figure 6. Fluorescence of tryptophan/tyrosine decreased in a concentration-dependent manner by the addition of acrylamide to the peptide solution both in the absence and presence of liposomes, without other effects on the spectra. However, we can observe a substantial difference between the two peptides.
Aliquots of a 4 M solution of the water-soluble quencher were added to the solution containing the peptide (1 µM) in the absence or presence of liposomes at a peptide/lipid molar ratio of 1/200. The maximal concentration of acrylamide is 0.2 mmol/ml. Tryptophan fluorescence was measured with an excitation wavelength of 295 nm, to reduce acrylamide absorbance (and the resulting inner filter effect), and emission at a wavelength of 340 nm, to eliminate interference from the Raman band of water and tyrosine fluorescence was measured with an excitation wavelength of 274 nm, and emission at a wavelength of 305. The data were analyzed according to the Stern-Volmer equation [68], F0/F = 1+Ksv [Q], where F0 and F represent the fluorescence intensities in the absence and the presence of the quencher (Q), respectively, and Ksv is the Stern-Volmer quenching constant, which is a measure of the accessibility of tryptophan to acrylamide. […] Accordingly, Ksv is determined by the amount of non-vesicle-associated free peptide as well as the fraction of the peptide residing at the surface of the bilayer.

[3] = Thioflavin T assay for peptide aggregation; assay type: physicochemical; settings: for Aggregation state in the presence of DOPC/Chol LUVs (ThT fluorescence) / Aggregation state in aqueous medium (ThT fluorescence): peptide 4 µM, 100 mM NaCl, 10 mM Tris–HCl, 25 µM ThT, pH 7.4, 37°C; for Aggregation state in the presence of DOPC/Chol LUVs (ThT fluorescence): 0.1 mM phospholipid; for Aggregation state in aqueous medium (ThT fluorescence): ex 450 nm / em 482 nm; for Oligomerization in aqueous solution / Oligomerization inside / interacting with the membrane: summary in discussion
Method: The peptide's aggregation state in buffer and DOPC/Chol LUVs was assayed using ThT [36], in order to know the possible effects of the peptide aggregation on the membranes. As observed in Figure 4 A–B, the two peptides present a completely different behaviour.
Peptide aggregation was assayed using Thioflavin T (ThT). ThT associates rapidly with aggregated peptides giving rise to a new excitation maximum at 450 nm and an enhanced emission at 482 nm. LUVs in 100 mM NaCl, 10 mM Tris–HCl, 25 µM ThT, pH 7.4 (final phospholipid concentration of 0.1 mM) were titrated with a peptide concentration of 1, 4, 8, 12, 16, 20 µM. Fluorescence was measured before and after the desired amount of peptide was added into the cuvette using a Varian Cary Eclipse fluorescence spectrometer at 37°C. Samples were excited at 450 nm (slit width, 5 nm) and fluorescence emission was recorded at 482 nm (slit width, 5 nm). Aggregation was quantified according to the equation, %A = (Ff−F0)/(Fmax−F0)×100, where Ff is the value of fluorescence after peptide addition, F0 the initial fluorescence in the absence of peptide and Fmax is the fluorescence maximum obtained immediately after peptide addition. Kinetic data were obtained at a concentration of 4 µM.

[4] = target: the molecule itself; experiment: thioflavin T fluorescence (peptide aggregation)

Molecule | Level of fusion (lipid mixing) in DOPC/Chol LUVs [1] | Ksv (M^−1) in buffer [2] | Ksv (M^−1) in LUVs [2] | Aggregation state in the presence of DOPC/Chol LUVs (ThT fluorescence) [3] | Aggregation state in aqueous medium (ThT fluorescence) [3] | Oligomerization in aqueous solution [3] | Oligomerization inside / interacting with the membrane [3] | further results
CC(C)[C@H](NC(=O)[C@@H](N)CCCNC(=N)N)C(=O)N[C@@H](CCC(=O)O)C(=O)N[C@@H](C)C(=O)N[C@@H](Cc1ccccc1)C(=O)N[C@@H](Cc1c[nH]cn1)C(=O)N[C@@H](CCCNC(=N)N)C(=O)N[C@@H](Cc1ccc(O)cc1)C(=O)O [HB258–265] (H-RVEAFHRY-OH) | lower levels of fusion compared to longer sequences | – | – | – | – | – | – | –
CC[C@H](C)[C@H](NC(=O)CNC(=O)[C@H](CCSC)NC(=O)[C@H](Cc1ccccc1)NC(=O)[C@H](CCC(N)=O)NC(=O)[C@H](CO)NC(=O)[C@H](Cc1ccc(O)cc1)NC(=O)[C@H](CCCNC(=N)N)NC(=O)[C@H](Cc1c[nH]cn1)NC(=O)CNC(=O)[C@H](Cc1ccccc1)NC(=O)[C@H](Cc1c[nH]c2ccccc12)NC(=O)[C@@H](NC(=O)[C@H](CCC(N)=O)NC(=O)[C@H](CO)NC(=O)[C@@H](NC(=O)[C@@H](NC(=O)[C@@H](N)C(C)C)[C@@H](C)O)C(C)C)C(C)C)C(=O)N[C@@H](Cc1ccccc1)C(=O)O [HB168–186] (H-VTVSQVWFGHRYSQFMGIF-OH) | – | 8.3 ± 0.2 M⁻¹ | 6.4 ± 0.4 M⁻¹ | lower aggregation | already aggregated | high tendency to oligomerize | high tendency to oligomerize | Fusogenic ability (lipid mixing) ([1]; LUVs of DOPG, DOPG/Chol, DOPC, DOPC/Chol, POPC/Chol, Triton X-100 = 100%, at least three repeats averaged): higher fusogenic ability; Aggregation as a function of peptide concentration (ThT fluorescence) ([3]; buffer and DOPC/Chol LUVs, high concentrations (titration 1, 4, 8, 12, 16, 20 µM), 37°C): aggregated both in the aqueous medium and in LUVs
CC(C)[C@H](N)C(=O)N[C@@H](Cc1c[nH]c2ccccc12)C(=O)N[C@@H](Cc1ccccc1)C(=O)NCC(=O)N[C@@H](Cc1c[nH]cn1)C(=O)N[C@@H](CCCNC(=N)N)C(=O)N[C@@H](Cc1ccc(O)cc1)C(=O)O [HB173–179] (H-VWFGHRY-OH) | lower levels of fusion compared to longer sequences | – | – | – | – | – | – | –
CC(C)[C@H](NC(=O)[C@H](CCCNC(=N)N)NC(=O)[C@H](CO)NC(=O)[C@@H]1CCCN1C(=O)[C@H](CC(N)=O)NC(=O)[C@@H](N)Cc1ccc(O)cc1)C(=O)N[C@@H](CCC(=O)O)C(=O)N[C@@H](C)C(=O)N[C@@H](Cc1ccccc1)C(=O)N[C@@H](Cc1c[nH]cn1)C(=O)N[C@@H](CCCNC(=N)N)C(=O)N[C@@H](Cc1ccc(O)cc1)C(=O)NCC(=O)N[C@H](C(=O)N[C@H](C(=O)N[C@H](C(=O)N[C@@H](CC(N)=O)C(=O)O)C(C)C)[C@@H](C)O)[C@@H](C)O [HB254–270] (H-YNPSRVEAFHRYGTTVN-OH) | – | 71.1 ± 1.1 M⁻¹ | 8.5 ± 0.1 M⁻¹ | not aggregated | not aggregated | not oligomerized | able to oligomerize | –
B1 | – | – | – | – | – | – | – | binding result [4]: binds
